Measured values taken from patent publication US3966735A, “1-3-(4-Fluorobenzoyl)propyl-4-substituted phenoxy ethyl piperazine” (Kali-Chemie Aktiengesellschaft, priority 1973, dated 1976).

How the values were obtained:
[1] = Acute toxicity, single oral administration (Test 1); settings: mouse, in vivo, fasting white mice, NMRI strain, Litchfield and Wilcoxon
Procedure: 1. Acute toxicity: The acute toxicity is determined by a single oral administration to fasting white mice of the NMRI strain. The […] lethal dose (LD50) is computed in accordance with the method described by J.T. Litchfield and F. Wilcoxon in Journal of Pharmacology and Experimental Therapeutics, vol. 96, page 99 (1949).

[2] = tested on: female mice of the NMRI strain; assay: Squirrel-cage test for determining effect of drugs on motility (Test 4); assay type: in vivo, mouse (female mice of the NMRI strain); settings: peroral, 20 mice, revolutions over 5 hours, compared with peroral chlordiazepoxide
Procedure: 4. Squirrel-cage test for determining effect of drugs on motility: The test substance is administered perorally to female mice of the NMRI strain that had previously not been exercised in a squirrel cage. Twenty mice are placed into the revolving cylinder of the squirrel cage and they are allowed to run freely therein. The number of revolutions through which the cylinder in the squirrel cage spins every 15 minutes is noted during the course of an extended period of 5 hours, when the test is discontinued. The average of the number of revolutions per minute is calculated and represented on a graph. These values are then compared with […] and the results are reported in milligrams per kilogram of body weight.

mouse = assay: Test of prolongation of narcosis induced by hexobarbital (Test 2); assay type: in vivo; settings: peroral, 30 minutes before 65 mg/kg hexobarbital i.v., dose required to double the sleeping time, read-out: Narcotic prolongation effect (Test 2)
Procedure: 2. Test of prolongation of narcosis induced by hexobarbital: In accordance with this test, the test substance is administered perorally to a mouse. After an interval of 30 minutes, a dose of 65 milligrams of hexobarbital per kilogram of body weight is administered intravenously. The result is reported as the dose of the test compound that was required to double the period of sleeping time that was induced by the hexobarbital.

[3] = tested on: female mice of the NMRI strain; assay: Test of sedative effectiveness (Test 3); assay type: in vivo, mouse (female mice of the NMRI strain); settings: Mus musculus, ip, 0.5 h; intraperitoneal, on awakening from 100 mg/kg hexobarbital i.p.; dose required to induce sleep for 30 minutes; read-out: Effective sedative dose ED50 (Test 3)
Procedure: 3. Test of sedative effectiveness: In this test is measured the period of narcosis that is induced by the test substance following a period of narcosis induced by hexobarbital. A dose of 100 milligrams of hexobarbital per kilogram of body weight is administered intraperitoneally to female mice of the NMRI strain. As soon as the mouse revives or awakens from the narcosis induced by the dose of hexobarbital, a measured dose of the test substance is administered intraperitoneally. The period between the administration of the test substance and the second revival of the mouse is then noted. From the length of this second period is calculated the dose of the test substance that was required to induce sleep for a period of 30 minutes and this dose is referred to as the effective sedative dose (ED50).

Structure (SMILES)	LD50 [1] [mg/kg]	Squirrel cage motility test versus 21.5 mg/kg chlordiazepoxide (Test 4) [2] [mg/kg]	ED (2-fold sleeping time) (mouse) [mg/kg]	ED50 [3] [mg/kg]
Cl.Cl.N#Cc1ccc(OCCN2CCN(CCCC(=O)c3ccc(F)cc3)CC2)cc1 [Substance 1, 1-[3-(4-Fluorobenzoyl)propyl]-4-[2-(4-cyanophenoxy)ethyl]-piperazine dihydrochloride]	215	0.7	10	21.5
Cl.Cl.O=C(CCCN1CCN(CCSc2ccc(Cl)cc2)CC1)c1ccc(F)cc1 [Substance 2, 1-[3-(4-Fluorobenzoyl)propyl]-4-[2-(4-chlorophenylthio)-ethyl]piperazine dihydrochloride]	> 1470	> 10	20	30
CCC(=O)c1ccc(OCCN2CCN(CCCC(=O)c3ccc(F)cc3)CC2)c(Cl)c1.Cl.Cl [Substance 3, 1-[3-(4-Fluorobenzoyl)propyl]-4-[2-(4-propionyl-2-chlorophenoxy)ethyl]piperazine dihydrochloride]	860	1.5	20	14
Cc1ccc(OCCN2CCN(CCCC(=O)c3ccc(F)cc3)CC2)c([N+](=O)[O-])c1.Cl.Cl [Substance 4, 1-[3-(4-Fluorobenzoyl)propyl]-4-[2-(4-methyl-2-nitrophenoxy)ethyl]piperazine dihydrochloride]	1720	–	20	46
COc1cc(C)ccc1OCCN1CCN(CCCC(=O)c2ccc(F)cc2)CC1.Cl.Cl [Substance 5, 1-[3-(4-Fluorobenzoyl)propyl]-4-[2-(4-methyl-2-methoxyphenoxy)ethyl]piperazine dihydrochloride]	458	3.2	46	7
Cc1ccc([N+](=O)[O-])cc1OCCN1CCN(CCCC(=O)c2ccc(F)cc2)CC1.Cl.Cl [Substance 6, 1-[3-(4-Fluorobenzoyl)propyl]-4-[2-(5-nitro-2-methylphenoxy)ethyl]piperazine dihydrochloride]	> 1470	–	32	23
CS(=O)(=O)c1ccc(OCCN2CCN(CCCC(=O)c3ccc(F)cc3)CC2)cc1.Cl.Cl [Substance 7, 1-[3-(4-Fluorobenzoyl)propyl]-4-[2-(4-methylsulfonylphenoxy)ethyl]piperazine dihydrochloride]	825	6.8	46	30
Cl.Cl.O=C(CCCN1CCN(CCSc2ccc([N+](=O)[O-])cc2)CC1)c1ccc(F)cc1 [Substance 8, 1-[3-(4-Fluorobenzoyl)propyl]-4-[2-(4-nitrophenylthio)-ethyl]piperazine dihydrochloride]	499	6.8	6	30
